In patent publication US5384309A, “Cyclized peptides and their use as platelet aggregation inhibitors” (Genentech, Inc., priority 1989, dated 1995):
Where two headings read alike, the source gives them in different places. Positions of bridges follow the written chain, without caps; N, C: chain ends. Non-standard residues stand in square brackets, D forms with d. Residues, ends and D or L forms follow the SMILES beside them. No end group written: not given here.

How the values were obtained:
[1] = target: T1, purified human platelet GP llbllla receptor (Homo sapiens, UniProt P05106+P08514); test: biochemical; type: binding; conditions: for IC50: ELISA, fibrinogen-coated plates, solubilized GP llbllla, read-out: IC50, inhibition of fibrinogen binding to the GP llbllla platelet receptor
T1 construct: Platelet GP llbllla was prepared by the method of Fitzgerald, et al; from tissue; host or cells: human platelets
Description: In-vitro biological activity of the compounds of Formula I was monitored using a modified fibrinogen--GP llbllla ELISA based on the method of Nachman and Leung (J. Clin. Invest. (1982) 69, 263-269) which measures the inhibition of fibrinogen binding to purified human platelet GP llbllla receptor. Human fibrinogen was prepared by the method of Lipinska, et al. (J. Lab. Grin. Med. (1974) 84, 509-516). Platelet GP llbllla was prepared by the method of Fitzgerald, et al. (Anal. Blochem. (1985) 151,169-177.
Microtiter plates are coated with fibrinogen (10 ug/ml) and then blocked with TACTS buffer containing 0.5% bovine serum albumin (BSA). (TACTS buffer contains 20 mM Tris. HCl, pH 7.5, 0.02% sodium azide, 2 mM calcium chloride, 0.05% Tween 20, 150 mM sodium chloride.) The plate is washed with phosphate buffered saline (PBS) containing 0.01% Tween 20 and the sample to be determined added, followed by addition of solubilized GP llbllla receptor (40 ug/ml) in TACTS, 0.5% BSA. After incubation, the plate is washed and 1 ug/ml of murine anti-platelet monoclonal antibody AP3 (P. J. Newman et al. Blood (1985) 65, 227-232) is added. After another wash a goat anti-mouse IgG conjugated to horseradish peroxidase is added. A final wash is performed and developing reagent buffer (10 mg o-phenylenediamine dihydrochloride, 0.0212% hydrogen peroxide, 0.22 mM citrate, 50 mM phosphate, pH 5.0) is added and then incubated until color develops. The reaction is stopped with 1N sulfuric acid and the absorbance at 492 nm is recorded.
Microtiter plates are coated with fibrinogen (10 ug/ml) and then blocked with TACTS buffer containing 0.5% BSA. (TACTS buffer contains 20mM Tris. HCl, pH 7.5, 0.02% sodium azide, 2 mM calcium chloride, 0.05% Tween 20, 150 mM sodium chloride.) The plate is washed with phosphate buffered saline containing 0.01% Tween 20 and a dilution of the sample to be determined added, followed by addition of solubilized llbllla receptor (40 ug/ml) in TACTS, 0.5% BSA. After incubation, the plate is washed and murine monoclonal anti-platelet antibody AP3 (1 ug/ml) added. After another wash goat and anti-mouse IgG conjugated to horseradish peroxidase is added. A final wash is performed and developing reagent buffer (10 mg o-phenylenediamine dihydrochloride, 0.0212% hydrogen peroxide, 0.22 mM citrate, 50 mM phosphate, pH 5.0) is added and then incubated until color developed. The reaction is stopped with 1N sulfuric acid and the absorbance at 492 nm is recorded.

[2] = target: human platelet rich plasma (PRP) platelets (Homo sapiens, UniProt P05106+P08514); test: platelet aggregation inhibition in human platelet rich plasma (ADP induced); type: cell-based; conditions: ADP 8 uM
Description: (§1) In addition to the GP llbllla ELISA assay, platelet aggregation assays may be performed in human platelet rich plasma (PRP). Fifty milliliters of whole human blood (9 parts) is drawn on 3.6% sodium citrate (1 part) from a donor who has not taken aspirin or related medications for at least two weeks. The blood is centrifuged at 160 ×g for 10 min at 220° C. and then allowed to stand for 5 min after which the PRP is decanted. Platelet poor plasma (PPP) is isolated from the remaining blood after centrifugation at 2000×g for 25 min. The platelet count of the PRP was diluted to ca. 300000 per microliter with PPP.
A 225 uL aliquot of PRP plus 25 uL of either a dilution of the test sample or a control (PBS) is incubated for 5 min in a Chrono-log Whole Blood Aggregometer at 25° C. An aggregatng agent (collagen, 1 ug/ml; U46619, 100 ng/ml; or ADP, 8 uM) is added and the platelet aggregation recorded.
as §1, with “Fifty” for “In addition to the GP llbllla ELISA assay, platelet aggregation assays may be performed in human platelet rich plasma (PRP). Fifty”, “160×g” for “160 ×g”, “22°” for “220°”
A 225 uL aliquot of PRP plus 25 uL of either a dilution of the test sample or a control (PBS) is incubated for 5 min in a Chrono-log Whole Blood Aggregometer at 25° C. Adenosine diphosphate (ADP, 8 uM) is added and the platelet aggregation recorded.

[3] = GP IIbIIIa receptor assay for inhibition of fibrinogen binding, smaller ratio = more active

T1 sequence (P08514 32-887 limits assumed): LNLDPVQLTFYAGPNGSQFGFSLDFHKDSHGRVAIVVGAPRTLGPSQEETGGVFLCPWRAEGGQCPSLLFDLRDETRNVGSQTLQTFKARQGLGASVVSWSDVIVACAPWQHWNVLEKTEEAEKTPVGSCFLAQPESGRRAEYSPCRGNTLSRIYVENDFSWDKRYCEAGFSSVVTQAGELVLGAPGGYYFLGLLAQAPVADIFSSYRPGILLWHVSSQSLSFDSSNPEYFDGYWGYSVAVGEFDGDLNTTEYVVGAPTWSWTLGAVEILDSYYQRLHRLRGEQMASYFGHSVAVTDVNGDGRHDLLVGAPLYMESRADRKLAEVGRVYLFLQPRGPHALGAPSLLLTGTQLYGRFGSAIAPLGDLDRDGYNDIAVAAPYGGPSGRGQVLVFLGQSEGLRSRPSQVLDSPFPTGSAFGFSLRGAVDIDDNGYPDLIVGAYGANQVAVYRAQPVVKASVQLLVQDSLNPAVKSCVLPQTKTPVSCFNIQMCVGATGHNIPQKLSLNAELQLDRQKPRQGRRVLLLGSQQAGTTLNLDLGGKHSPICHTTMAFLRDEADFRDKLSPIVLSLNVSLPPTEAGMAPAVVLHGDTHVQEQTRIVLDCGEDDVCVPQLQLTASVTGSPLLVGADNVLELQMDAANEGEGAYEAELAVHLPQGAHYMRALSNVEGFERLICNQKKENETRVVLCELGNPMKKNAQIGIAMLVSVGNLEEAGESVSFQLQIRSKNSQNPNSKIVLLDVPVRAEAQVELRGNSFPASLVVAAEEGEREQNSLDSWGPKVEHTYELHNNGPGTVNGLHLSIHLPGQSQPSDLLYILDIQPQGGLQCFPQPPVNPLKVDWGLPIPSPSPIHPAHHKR
T1 sequence (P08514 891-1039 partner limits assumed): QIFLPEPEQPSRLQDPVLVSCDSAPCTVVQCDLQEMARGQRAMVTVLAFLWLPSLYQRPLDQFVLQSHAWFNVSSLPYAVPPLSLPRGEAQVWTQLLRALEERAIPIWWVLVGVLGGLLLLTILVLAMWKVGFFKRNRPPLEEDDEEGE
T1 sequence (P05106 27-788): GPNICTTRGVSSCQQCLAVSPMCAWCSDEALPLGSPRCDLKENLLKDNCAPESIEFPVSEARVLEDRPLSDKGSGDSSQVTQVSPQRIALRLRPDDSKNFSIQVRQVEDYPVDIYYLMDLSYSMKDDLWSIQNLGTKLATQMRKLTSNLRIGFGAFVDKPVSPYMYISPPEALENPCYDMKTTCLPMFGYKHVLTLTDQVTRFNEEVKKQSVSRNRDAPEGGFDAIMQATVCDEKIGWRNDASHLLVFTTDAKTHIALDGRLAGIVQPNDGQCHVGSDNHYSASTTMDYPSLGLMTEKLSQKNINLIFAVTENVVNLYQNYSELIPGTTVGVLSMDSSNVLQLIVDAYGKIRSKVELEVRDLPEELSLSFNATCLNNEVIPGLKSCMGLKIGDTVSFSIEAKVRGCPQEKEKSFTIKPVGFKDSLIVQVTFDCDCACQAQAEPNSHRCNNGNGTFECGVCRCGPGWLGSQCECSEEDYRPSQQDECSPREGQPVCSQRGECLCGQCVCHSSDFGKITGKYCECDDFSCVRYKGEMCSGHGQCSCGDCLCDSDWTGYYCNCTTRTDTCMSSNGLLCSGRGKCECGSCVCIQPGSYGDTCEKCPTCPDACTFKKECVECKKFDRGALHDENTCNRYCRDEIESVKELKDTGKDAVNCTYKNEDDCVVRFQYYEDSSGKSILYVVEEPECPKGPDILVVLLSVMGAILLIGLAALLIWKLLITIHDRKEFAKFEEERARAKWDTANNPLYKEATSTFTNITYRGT
Chain of human platelet rich plasma (PRP) platelets (P08514 32-1039): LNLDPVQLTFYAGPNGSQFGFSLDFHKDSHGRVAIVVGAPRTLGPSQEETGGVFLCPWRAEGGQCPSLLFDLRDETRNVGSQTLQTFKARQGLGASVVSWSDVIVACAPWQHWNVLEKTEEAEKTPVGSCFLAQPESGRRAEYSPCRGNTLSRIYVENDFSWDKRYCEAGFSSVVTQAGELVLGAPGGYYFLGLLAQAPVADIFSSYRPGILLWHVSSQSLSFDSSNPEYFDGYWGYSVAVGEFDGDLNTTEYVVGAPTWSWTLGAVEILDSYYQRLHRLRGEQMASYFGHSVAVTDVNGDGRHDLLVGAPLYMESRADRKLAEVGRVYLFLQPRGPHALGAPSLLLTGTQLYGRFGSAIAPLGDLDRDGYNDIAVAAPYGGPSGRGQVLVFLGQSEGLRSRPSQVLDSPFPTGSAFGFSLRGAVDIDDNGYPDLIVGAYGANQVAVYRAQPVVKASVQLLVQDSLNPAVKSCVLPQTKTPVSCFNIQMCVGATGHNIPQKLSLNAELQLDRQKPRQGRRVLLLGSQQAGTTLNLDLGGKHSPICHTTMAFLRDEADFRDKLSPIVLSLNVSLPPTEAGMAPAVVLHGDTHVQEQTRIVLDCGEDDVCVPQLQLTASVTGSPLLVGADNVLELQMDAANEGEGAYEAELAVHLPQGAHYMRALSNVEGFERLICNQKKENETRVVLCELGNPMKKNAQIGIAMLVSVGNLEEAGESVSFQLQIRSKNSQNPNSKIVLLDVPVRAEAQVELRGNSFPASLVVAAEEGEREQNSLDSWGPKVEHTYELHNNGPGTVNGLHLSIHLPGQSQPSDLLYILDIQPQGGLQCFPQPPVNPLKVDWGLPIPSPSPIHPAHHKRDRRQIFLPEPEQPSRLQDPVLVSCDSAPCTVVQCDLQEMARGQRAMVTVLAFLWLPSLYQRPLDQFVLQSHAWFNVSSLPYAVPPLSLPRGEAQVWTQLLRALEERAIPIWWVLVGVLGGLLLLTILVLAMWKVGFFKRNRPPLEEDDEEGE
Chain of human platelet rich plasma (PRP) platelets (P05106 27-788): as the sequence (P05106 27-788) above

| Compound | Ratio of IC50 of test compound to IC50 of Gly-Arg-Gly-Asp-Val [1] | Ratio of IC50 of test compound to IC50 of Gly-Arg-Gly-Asp-Val [1, 3] | IC50 [2] [nM] | also measured |
| --- | --- | --- | --- | --- |
| N=C(N)NCCC[C@@H]1NC(=O)CNC(=O)CSC[C@@H](C(=O)O)NC(=O)[C@H](CC(=O)O)NC(=O)CNC1=O [Ex. 2, cyclo-S-acetyl-Gly-Arg-Gly-Asp-Cys-OH] ({CH2CO}-GRGDC-OH; thioether N-5) | – | 0.14 | 8000 | – |
| C[C@@H](O)[C@@H]1NC(=O)CSC[C@@H](C(=O)O)NC(=O)[C@H](CC(=O)O)NC(=O)CNC(=O)[C@H](CCCNC(=N)N)NC1=O [Ex. 6, cyclo-S-acetyl-Thr--Arg--Gly--Asp--Cys--OH] ({CH2CO}-TRGDC-OH; thioether N-5) | 0.46 | – | – | – |
| C[C@H](O)[C@H]1NC(=O)CSC[C@@H](C(=O)O)NC(=O)[C@H](CC(=O)O)NC(=O)CNC(=O)[C@H](CCCNC(=N)N)NC1=O [Ex. 7, Cyclo-S-acetyl-(d-Thr)-Arg-Gly-Asp-Cys-OH] ({CH2CO}-[dT]RGDC-OH; thioether N-5) | – | 0.07 | – | – |
| C[C@H](O)[C@H]1NC(=O)CSC[C@@H](C(=O)O)NC(=O)[C@H](CC(=O)O)NC(=O)CNC(=O)[C@H](CCCN=C(N)N)NC1=O [Ex. 7, Cyclo-S-acetyl-(d-Thr)-Arg-Gly-Asp-Cys-OH] ({CH2CO}-[dT]RGDC-OH; thioether N-5) | – | – | 800 | – |
| C[C@H]1NC(=O)CSC[C@@H](C(=O)O)NC(=O)[C@H](CC(=O)O)NC(=O)CNC(=O)[C@H](CCCNC(=N)N)NC1=O [Ex. 9, cyclo-S-acetyl-(dAla)-Arg--Gly--Asp--Cys--OH] ({CH2CO}-[dA]RGDC-OH; thioether N-5) | – | 0.13 | 3000 | – |
| N=C(N)NCCC[C@@H]1NC(=O)[C@H]2CCCN2C(=O)CSC[C@@H](C(=O)O)NC(=O)[C@H](CC(=O)O)NC(=O)CNC1=O [Ex. 13, cyclo-S-acetyl-(dPro)-Arg--Gly--Asp--Cys--OH] ({CH2CO}-[dP]RGDC-OH; thioether N-5) | – | 0.05 | 2000 | – |
| N=C(N)NCCC[C@@H]1NC(=O)CNC(=O)C(c2ccccc2)SC[C@@H](C(=O)O)NC(=O)[C@H](CC(=O)O)NC(=O)CNC1=O (some centres unmarked) [Ex. 18, cyclo-S-Phenylacetyl-Gly--Arg--Gly--Asp--Cys--OH] | – | – | 3000 | – |
| N=C(N)NCCC[C@@H]1NC(=O)CNC(=O)CSC[C@@H](C(=O)O)NC(=O)[C@H](CC(=O)O)NC(=O)CNC1=O [cyclo-S-acetyl-Gly-Arg-Gly-Asp-Cys-OH] ({CH2CO}-GRGDC-OH; thioether N-5) | – | – | 8500 | IC50 [1]: 5 nM |
| GRGDV [Gly--Arg--Gly--Asp--Val, reference compound] [listing 1 of 2 here] | – | – | – | IC50 [1]: 20 to 40 nM |
| GRGDV [Gly--Arg--Gly--Asp--Val, reference compound] [listing 2 of 2 here] | – | 1 | – | – |

More lines, main results first:

| Ratio of IC50 of test compound to IC50 of Gly-Arg-Gly-Asp-Val [1] | Compound | Ratio of IC50 of test compound to IC50 of Gly-Arg-Gly-Asp-Val [1, 3] | IC50 [2] [nM] | also measured |
| --- | --- | --- | --- | --- |
| > 20 | N=C(N)NCCC[C@H](N)C(=O)NCC(=O)N[C@@H](CC(=O)O)C(=O)N[C@@H](CO)C(=O)O [Arg--Gly--Asp--Ser, reference compound] | – | – | – |
| 3 | CC(C)[C@H](NC(=O)[C@H](CC(=O)O)NC(=O)CNC(=O)[C@@H](N)CCCNC(=N)N)C(=O)O [Arg--Gly--Asp--Val, reference compound] (H-RGDV-OH) | – | – | – |
| 0.14 | N=C(N)NCCC[C@@H]1NC(=O)[C@@H](CC(N)=O)NC(=O)CSC[C@@H](C(=O)O)NC(=O)[C@H](CC(=O)O)NC(=O)CNC1=O [Ex. 5, cyclo-S-acetyl-(dAsn)-Arg--Gly--Asp--Cys--OH] ({CH2CO}-[dN]RGDC-OH; thioether N-5) | – | – | – |
| 0.5 | C[C@@H]1NC(=O)CSC[C@@H](C(=O)O)NC(=O)[C@H](CC(=O)O)NC(=O)CNC(=O)[C@H](CCCNC(=N)N)NC1=O [Ex. 8, cyclo-S-acetyl-Ala--Arg--Gly--Asp--Cys--OH] ({CH2CO}-ARGDC-OH; thioether N-5) | – | – | – |
| 0.38 | N=C(N)NCCC[C@@H]1NC(=O)[C@H](Cc2ccc(O)cc2)NC(=O)CSC[C@@H](C(=O)O)NC(=O)[C@H](CC(=O)O)NC(=O)CNC1=O [Ex. 10, cyclo-S-acetyl-Tyr--Arg--Gly--Asp--Cys--OH] ({CH2CO}-YRGDC-OH; thioether N-5) | – | – | – |
| 0.46 | N=C(N)NCCC[C@@H]1NC(=O)[C@@H]2CCCN2C(=O)CSC[C@@H](C(=O)O)NC(=O)[C@H](CC(=O)O)NC(=O)CNC1=O [Ex. 12, cyclo-S-acetyl-Pro--Arg--Gly--Asp--Cys--OH] ({CH2CO}-PRGDC-OH; thioether N-5) | – | – | – |
